Test results from patent US20230265068A1, “TRANSIENT RECEPTOR POTENTIAL CANONICAL 3 INHIBITORS AND METHODS OF USE THEREOF” (University of Tennessee Research Foundation, priority 2020, published 2023).

What was measured:
[1] = target: T1, rTRPV4 (Rattus norvegicus, UniProt Q9ERZ8); assay: whole-cell patch clamp selectivity, HEK 293 cells overexpressing rTRPV4; assay type: cell-based; conditions: HEK293, with agonist, solutions without Ca2+, read-out: % of the current of rTRPV4 inhibited
T1 construct: expressed in transfected cells; host or cells: HEK293, transient transfection, pMO vector
Protocol: (§1) Human embryonic kidney 293 (HEK293; catalog number CRL-1573) cells were cultured in Dulbecco's modified Eagle's medium (Invitrogen) supplemented with 10% fetal bovine serum and 1% penicillin-streptomycin at 37° C. and 5% CO2. Constructs cloned in pMO (a pcDNA3-modified vector) were co-transfected with GFP-pMO, using Lipofectamine 2000 (Invitrogen) according to the manufacturer's instructions. Macroscopic currents in the whole-cell patch clamp configuration were recorded 18-24 h post-transfection. The extracellular solution contained 140 mM NaCl, 6 mM KCl, 2 mM MgCl2, 10 mM HEPES, and 10 mM glucose (pH 7.4). Pipettes were made of borosilicate glass (outer diameter, 1.5 mm; inner diameter, 1.10 mm; Sutter Instruments) and fire-polished with a resistance between 2.8 and 4.0 megaohms when filled with an intracellular solution that contained 140 mM CsCl, 5 mM EGTA, and 10 mM HEPES, pH 7.2. Currents were recorded with a Multiclamp 700B amplifier (Molecular Devices) using a 1-s ramp from −100 to 100 mV. […] Data were acquired with a sampling rate of 20 kHz, low-pass filtered (10 kHz), and analyzed offline using Clampfit v10.4.2.0 (Molecular Devices). […]

[2] = target: T2, hTRPM8 (Homo sapiens, UniProt Q7Z2W7); assay: whole-cell patch clamp selectivity, HEK 293 cells overexpressing hTRPM8; assay type: cell-based; conditions: HEK293, with agonist, solutions without Ca2+, read-out: % of the current of hTRPM8 inhibited
T2 construct: expressed in transfected cells; host or cells: HEK293, transient transfection, pMO vector
Protocol: as §1

[3] = target: T3, hTRPC7 (Homo sapiens, UniProt Q9HCX4); assay: whole-cell patch clamp selectivity, HEK 293 cells overexpressing hTRPC7; assay type: cell-based; conditions: HEK293, with agonist, solutions without Ca2+, read-out: % of the current of hTRPC7 inhibited
T3 construct: expressed in transfected cells; host or cells: HEK293, transient transfection, pMO vector
T3 sequence (Q9HCX4 1-862): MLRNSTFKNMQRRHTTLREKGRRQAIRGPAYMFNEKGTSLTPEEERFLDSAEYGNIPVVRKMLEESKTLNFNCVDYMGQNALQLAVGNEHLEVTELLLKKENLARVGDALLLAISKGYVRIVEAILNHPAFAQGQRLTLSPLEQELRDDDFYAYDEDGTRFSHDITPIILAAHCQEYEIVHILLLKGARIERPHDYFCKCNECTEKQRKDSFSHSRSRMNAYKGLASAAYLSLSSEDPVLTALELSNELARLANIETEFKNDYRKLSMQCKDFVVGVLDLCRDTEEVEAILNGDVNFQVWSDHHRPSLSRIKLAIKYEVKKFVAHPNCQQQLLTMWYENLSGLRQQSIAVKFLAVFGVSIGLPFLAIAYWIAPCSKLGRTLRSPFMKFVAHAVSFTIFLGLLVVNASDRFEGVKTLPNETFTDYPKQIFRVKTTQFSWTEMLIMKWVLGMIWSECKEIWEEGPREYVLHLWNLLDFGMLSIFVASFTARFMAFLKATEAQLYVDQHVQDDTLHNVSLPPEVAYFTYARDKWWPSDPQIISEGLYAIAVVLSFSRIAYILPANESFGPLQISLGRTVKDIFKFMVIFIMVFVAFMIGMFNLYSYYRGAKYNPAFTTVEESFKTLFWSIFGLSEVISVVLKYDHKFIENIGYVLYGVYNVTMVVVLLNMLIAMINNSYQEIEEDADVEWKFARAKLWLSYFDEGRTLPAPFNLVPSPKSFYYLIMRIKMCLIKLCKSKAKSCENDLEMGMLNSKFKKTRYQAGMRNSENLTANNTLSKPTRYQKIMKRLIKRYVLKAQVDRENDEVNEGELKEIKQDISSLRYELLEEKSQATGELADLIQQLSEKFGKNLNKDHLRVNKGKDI
Protocol: as §1

[4] = metabolic stability in mouse liver microsomes; assay type: in vitro ADME; conditions: mouse, microsomes
Protocol: (§2) The metabolic stability of compound 22 was tested prior to the next phase of in vivo study. […] The maximum tolerated dose (MTD) study was subsequently performed to investigate its in vivo toxicity (FIGS. 4A and 4B). The second major limitation of Pyr3 is its toxicity due to its alkylating tail moiety. While replacing only the fast-metabolizing head ester group in Pyr3 with a stable amide (compound 79) improved metabolic stability, a single IP injection of compound 79 at 200 mg/kg killed all mice within 24 h.

[5] = metabolic stability in human liver microsomes; assay type: in vitro ADME; conditions: human, microsomes
Protocol: as §2

[6] = brain permeability and half-life after systemic administration in C57BL/6 mice; assay type: in vivo
Protocol: The brain permeability of compound 22 was evaluated with systemic administration (20 mg/kg, i.v.) in C57BL/6 mice. Blood samples were collected at nine time points after compound administration: 5 min, 15 min, 30 min, 1 hr, 2 hr, 4 hr, 8 hr, 16 hr, and 24 hr. Brain homogenates were then extracted and analyzed for concentrations of compound 22 by liquid chromatography-mass spectrometry (LC-MS). The half-life (T½) in the brain was calculated by GraphPad Prism software.

T1 sequence (Q9ERZ8 whole entry): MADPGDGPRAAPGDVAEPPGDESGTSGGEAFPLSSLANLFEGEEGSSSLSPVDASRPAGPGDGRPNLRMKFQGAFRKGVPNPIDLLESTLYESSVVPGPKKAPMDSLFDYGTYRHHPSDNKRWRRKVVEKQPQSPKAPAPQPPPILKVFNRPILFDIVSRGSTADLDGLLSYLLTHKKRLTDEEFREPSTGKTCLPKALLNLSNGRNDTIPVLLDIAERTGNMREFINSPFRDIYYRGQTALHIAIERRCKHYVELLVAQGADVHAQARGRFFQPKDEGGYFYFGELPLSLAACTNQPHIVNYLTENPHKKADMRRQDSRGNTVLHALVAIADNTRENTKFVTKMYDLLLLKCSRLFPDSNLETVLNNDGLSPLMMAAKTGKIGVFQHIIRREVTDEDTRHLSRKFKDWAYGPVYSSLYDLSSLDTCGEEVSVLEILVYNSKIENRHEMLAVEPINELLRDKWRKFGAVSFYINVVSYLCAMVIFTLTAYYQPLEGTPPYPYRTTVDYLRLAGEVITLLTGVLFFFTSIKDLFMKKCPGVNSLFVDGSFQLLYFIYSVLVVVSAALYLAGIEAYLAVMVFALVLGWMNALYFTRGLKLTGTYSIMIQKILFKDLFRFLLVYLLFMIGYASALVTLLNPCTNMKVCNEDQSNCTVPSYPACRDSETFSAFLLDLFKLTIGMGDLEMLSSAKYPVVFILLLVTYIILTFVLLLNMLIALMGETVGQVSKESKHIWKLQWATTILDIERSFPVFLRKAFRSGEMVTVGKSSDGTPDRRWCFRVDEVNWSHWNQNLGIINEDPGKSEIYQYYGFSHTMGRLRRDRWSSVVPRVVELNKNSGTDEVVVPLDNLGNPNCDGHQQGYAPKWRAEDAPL
T2 sequence (Q7Z2W7 whole entry): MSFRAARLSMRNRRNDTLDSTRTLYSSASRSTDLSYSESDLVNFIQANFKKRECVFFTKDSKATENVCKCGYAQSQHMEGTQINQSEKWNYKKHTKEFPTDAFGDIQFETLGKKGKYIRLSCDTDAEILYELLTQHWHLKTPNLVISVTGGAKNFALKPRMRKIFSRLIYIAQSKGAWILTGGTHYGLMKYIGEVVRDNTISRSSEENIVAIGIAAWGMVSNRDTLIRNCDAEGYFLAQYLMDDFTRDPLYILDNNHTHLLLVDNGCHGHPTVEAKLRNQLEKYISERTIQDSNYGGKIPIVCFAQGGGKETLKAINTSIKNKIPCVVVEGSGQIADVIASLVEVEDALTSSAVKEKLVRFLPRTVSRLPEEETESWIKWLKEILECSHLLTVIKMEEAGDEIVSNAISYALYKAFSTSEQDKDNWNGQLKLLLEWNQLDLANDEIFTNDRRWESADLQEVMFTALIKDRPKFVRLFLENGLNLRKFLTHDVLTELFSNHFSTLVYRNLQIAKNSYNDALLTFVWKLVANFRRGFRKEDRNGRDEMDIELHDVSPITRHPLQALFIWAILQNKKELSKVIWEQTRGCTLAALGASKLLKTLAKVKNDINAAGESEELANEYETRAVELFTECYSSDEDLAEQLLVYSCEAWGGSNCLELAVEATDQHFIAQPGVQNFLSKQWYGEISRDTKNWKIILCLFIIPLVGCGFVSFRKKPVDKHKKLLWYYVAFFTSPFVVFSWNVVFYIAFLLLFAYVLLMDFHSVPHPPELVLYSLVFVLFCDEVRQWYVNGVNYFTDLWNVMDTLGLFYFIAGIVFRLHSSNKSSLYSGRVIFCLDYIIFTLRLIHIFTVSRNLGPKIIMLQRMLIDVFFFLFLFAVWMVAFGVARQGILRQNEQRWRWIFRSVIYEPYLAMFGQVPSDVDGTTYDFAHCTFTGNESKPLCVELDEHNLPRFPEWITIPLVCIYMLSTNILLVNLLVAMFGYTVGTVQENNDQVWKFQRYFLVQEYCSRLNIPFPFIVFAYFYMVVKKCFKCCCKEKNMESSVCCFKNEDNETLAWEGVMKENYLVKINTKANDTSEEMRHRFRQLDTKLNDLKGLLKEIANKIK

Question: Which results are given for CCNC(=O)c1cnn(-c2ccc(-n3ccc(Cl)c(Cl)c3=O)cc2)c1C(F)(F)F [Compound 22]?
Answer: inhibition at 10 µM [1]: < 5%; inhibition at 10 µM [2]: < 5%; inhibition at 10 µM [3]: ~22%; half-life [4]: > 4 h; half-life [5]: > 4 h; Kp at 1 h ([6]; C57BL/6, mouse, brain/plasma, iv, 20 mg/kg, i.v., 1 h after injection, read-out: brain-to-plasma ratio): ~0.15; half-life ([6]; C57BL/6, mouse, plasma, iv, 20 mg/kg, i.v., read-out: plasma T½ (converted)): ~4 h; duration of brain concentration above TRPC3 IC50 ([6]; one-dose injection): 18 to 20 h
